Test results reported in BindingDB's records for doi:10.1016/s0960-894x(00)00282-1 (Novartis Horsham Research Centre, 2000).

Assay: Compound was evaluated for its inhibitory activity against Serine protease chymotrypsin

SMILES	Ki [µM]
CC1CNc2c(cccc2S(=O)(=O)N[C@@H](Cc2nc3ccccc3s2)C(=O)N2CCC(CCO)CC2)C1 (stereo partly drawn) [3-Methyl-1,2,3,4-tetrahydro-quinoline-8-sulfonic acid {(S)-1-benzothiazol-2-ylmethyl-2-[4-(2-hydroxy-ethyl)-piperidin-1-yl]-2-oxo-ethyl}-amide]	7.55
CCC1CCN(C(=O)C(Cc2nc3ccccc3s2)NS(=O)(=O)c2cccc3c2NCC(C)(C)C3)CC1 (configuration not stated) [MD805 Analogue]	4.91
